In one test the test system is people with ALS. As to conditions: injected intravenously; small subset of people with ALS; phase 3; cited from earlier work.
The test system of test [1] is SOD1^G93A Tg rat spinal cord motor neurons. Briefly: Primary culture of SOD1^G93A Tg rat spinal cord motor neurons injured with glutamate, 48 h incubation. As to conditions: glutamate 5 μM 20 min; for Protective effects of reference drugs after glutamate injury: concentration not given. The test is classed as cell-based. As to the method: Female (Sprague Dawley, Janvier) were mated at Neuro-Sys (Gardanne, France) with Tg SOD1^G93A male rats (Taconic Bioscience, US). Pregnant females of 14 days of gestation were used for the culture. The day of the dissection, a piece of each embryo head (˜3 mm^3) was placed in a 2 mL DNase free tube with a new scalpel. The DNA was extracted with the SYBR Green Extract-N-Amp tissue PCR kit (Sigma Aldrich). Briefly, 120 μL of extraction solution was put on each piece of embryo heads. Then, they were incubated for 10 min at room temperature. At the end of this incubation period, the heads were incubated for 5 min at 95° C. Immediately after this last incubation, 100 μL of neutralizing solution was added; each DNA extract was diluted at 1/40 and stored at +4° C. until use. SOD1^G93A gene was determined using genomic fragment with human SOD1 primers (5′-[…]-3′ SEQ ID NO: 1; 5′-[…]-3′ SEQ ID NO:2). The SOD1 primers were diluted at 3 μM in sterile ultrapure water. Briefly, a mix for PCR was prepared with ultrapure water (4 μL per sample), primer at 3 μM (2 μL per sample) and Master Mix (10 μL per sample). In a PCR 96 wells plate, 16 μL of PCR mix was added in each well. 4 μL of each diluted DNA was added according to a plan deposit.
Rat spinal cord motor neurons were cultured as described by Boussicault et al., J Neurosci Res. 2020 December; 98 (12), 2435-50 and Wang et al. Hum. Mol. Genet., 2013 December 1; 22 (23), 4706-19. Pregnant female rats of 14 days of gestation were killed by cervical dislocation. The culture was carried out as described in example 1.
On day 13, culture medium was removed and cultures were exposed to the test compounds: N-(3-(4-(3-(diisobutylamino)propyl)piperazin-1-yl)propyl)-1H-benzo[d]imidazol-2-amine) sesqui-succinate salt Form 1, in comparison to Riluzole and Edaravone, and glutamate (5 μM) for 20 min at 37° C. in defined medium. After glutamate exposure, the cultures were washed with defined medium at 37° C. then placed in fresh culture medium containing the test compound, Riluzole or Edavarone for additional 48h.
• The end point evaluation was carried out as described in example 1.
(§1) The statistical analysis was carried out as described in example 1.

Test [2] has as its system Rat spinal cord motor neurons (MN). Briefly: Rat primary spinal cord motor neurons injured with glutamate, 24 h pre-incubation + 24 h post-injury incubation. The test is classed as cell-based. On the procedure: The culture was carried out as described in example 1.
On day 12 of culture, primary motor neurons were treated with the sesqui-succinate Form 1 for 24 hours. On day 13 of culture, glutamate was added to a final concentration of 5 µM diluted in control medium in presence of the sesqui-succinate salt Form 1 for 20 min. After 20 min, glutamate was washed and fresh culture medium with the sesqui-succinate Form 1 was added for an additional 24 hours.
The end point evaluation was carried out as described in example 1.
as §1

For test [3] the test system is unchanged. The test can be described thus: Rat primary spinal cord motor neurons injured with glutamate, 48 h incubation with compound. Format: cell-based. The note with it: glutamate 5 μM 20 min. On the procedure: Rat spinal cord motor neurons (MN) were cultured as previously described by Boussicault et al., J Neurosci Res. 2020 December; 98 (12), 2435-50 and Wang et al. Hum. Mol. Genet., 2013-12-1; 22 (23), 4706-19. Pregnant female rats of 14 days gestation (Rats Wistar; Janvier Labs France) were killed using a deep anesthesia with CO2 chamber followed by cervical dislocation. Then, embryos (E14) were removed from the uterus and immediately placed in ice-cold L15 Leibovitz medium with a 2% penicillin (10,000 U/mL) and streptomycin (10 mg/mL) solution (PS) and 1% bovine serum albumin (BSA). Spinal cords were removed and placed in ice-cold medium of Leibovitz (L15). Spinal cords were treated for 20 min at 37° C. with a trypsin-Ethylenediaminetetraacetic acid (EDTA) solution at a final concentration of 0.05% trypsin and 0.02% EDTA. The dissociation was stopped by the addition of Dulbecco's modified Eagle's medium (DMEM) with 4.5 g/liter of glucose, containing DNAse I grade II (final concentration 0.5 mg/mL) and 10% fetal calf serum (FCS). Cells were mechanically dissociated by three forced passages through the tip of a 10-mL pipette. Cells were then centrifuged at 515×g for 10 min at +4° C. The supernatant was discarded, and the pellet was resuspended in a defined culture medium consisting of Neurobasal medium with a 2% solution of B27 supplement, 2 mmol/liter of L-glutamine, 2% of PS solution, and 10 ng/ml of brain-derived neurotrophic factor (BDNF). Viable cells were counted in a Neubauer cytometer, using the trypan blue exclusion test. The cells were seeded at a density of 20,000 per well in 96-well plates precoated with poly-L-lysine and cultured at 37° C. in an air (95%)-CO2 (5%) incubator. The medium was changed every 2 days.
On day 13 of culture, glutamate was added to a final concentration of 5 μM diluted in control medium in presence of the sesqui-succinate Form 1 for 20 min. After 20 min, glutamate was washed and fresh culture medium with the sesqui-succinate Form 1 was added for 48 hours.
After 15 days of culture (48h after the glutamate injury), the cell culture supernatant was collected and the spinal cord MNs were fixed by a cold solution of ethanol (95%) and acetic acid (5%) for 5 min at −20° C. for immunostaining. Cells were washed twice in PBS. Cell membranes were permeabilized and non-specific sites were blocked with a solution of PBS containing 0.1% of saponin and 1% FCS for 15 min at room temperature. Then, cells were incubated for 2 hours with: • a) mouse monoclonal antibody anti-microtubule associated protein 2 (MAP-2) at dilution of 1/400 in PBS containing 1% fetal calf serum and 0.1% of saponin. This antibody binds specifically MAP-2 present in cell bodies and neurites of all MNs. […] Cytoplasmic localization of TDP43 was investigated.
Nuclei of neurons were counterstained with the fluorescent dye (Hoechst).
For each condition, 30 pictures (representative of the whole well area) per well were automatically taken using ImageXpress (Molecular Devices) with 20× magnification. All images were taken under the same conditions (exposition time, gain and laser intensity). Analysis of different endpoints, were automatically performed using Custom Module Editor (Molecular Devices). Motoneurons (MAP-2) were distinguished from interneurons (staining MAP-2) using the following morphological criteria: a cell body diameter […] and the presence of a minimum of three neuritic processes (Ferraiuolo et al. Brain 2011:134; 2627-2641).
The endpoints were: • survival of MNs (MAP-2 staining number of MNs) • neurite network of MNs (MAP-2 staining, total neurite length expressed in μm) • cytoplasmic TDP43 (extranuclear, eTDP43) in MAP-2 positive MNs (overlapping between MAP-2 and cytoplasmic TDP-43 in μm^2). Results are expressed as the ratio of the overlapping MAP-2/TDP-43 per number of MNs.
All values are expressed as mean+/−SEM. Statistical analyses were performed using one-way ANOVA followed by PLSD Fisher test. […]

Test [4] has as its system neuromuscular junctions in co-culture of human myoblasts and rat spinal cord explants. The test can be described thus: Co-culture of human myoblasts and rat spinal cord explants (neuromuscular junctions) injured with glutamate. The test is classed as cell-based. As to conditions: glutamate 60 μM 20 min, 48 h incubation.
[5] abbreviates: 30 nM to 300 nM, 24 h pre-incubation + 24 h incubation.
Setting [6] is: 30 nM to 300 nM, 48 h incubation.

`CC1=NN(c2ccccc2)C(=O)C1` [Edaravone, reference compound]: the “Decline of ALS Functional Rating Scale-Revised score compared with placebo” value in the test with people with ALS is recorded as “significantly smaller decline”. For the same compound, the “Protective effects of reference drugs after glutamate injury” value in test [1] (FIG. 9) is on record as “protective effects”.

For “N-(3-(4-(3-(diisobutylamino)propyl)piperazin-1-yl)propyl)-1H-benzo[d]imidazol-2-amine sesqui-succinate salt [sesqui-succinate salt Form 1]”, in test [2] (setting [5]), the “Effect on motor neuron survival compared to the glutamate condition” value is “positive and significant effect”; the “Effect on neurite network after glutamate damage” value is listed as “able to protect the neurite network”. For the same compound, the “Reduction of abnormal distribution of TDP-43 (extranuclear TDP-43)” value in test [2] (30 nM to 300 nM, 24 h pre-incubation + 24 h incubation, glutamate alone mean 139% of control, FIG. 8C) is “up to 14%”. In test [2] (300 nM (maximal effect), 24 h pre-incubation + 24 h incubation, glutamate alone mean 60%, FIG. 8B), the “Neurite network integrity, mean, percentage of control” value is given as 81%. The “Motor neuron survival, mean, percentage of control” value in test [2] (300 nM (maximal effect), 24 h pre-incubation, glutamate 5 µM 20 min, 24 h post-injury incubation, glutamate alone mean 62%, FIG. 8A) is given as 79%. In test [3] (30 nM (maximal effect), then 48 h with compound, glutamate alone mean 58%, FIG. 7A), the “Motor neuron survival (number of MAP-2 positive MNs), mean, percentage of control” value was 79%. In test [3] (setting [6]), the “Effect on motor neuron survival compared to the glutamate condition” value was “positive and significant effect”; the “Effect on neurite network after glutamate injury” value is listed as “able to improve the neurite network”. Also, the “Neurite network integrity (MAP-2 total neurite length), mean, percentage of control” value in test [3] (100 nM (maximal effect), 48 h incubation, glutamate alone mean 62%, FIG. 7B) is listed as 77%. For the same compound, the “Reduction of accumulation of TDP-43 in the cytoplasm (extranuclear TDP-43)” value in test [3] (300 nM, 48 h incubation, glutamate alone mean 135% of control, FIG. 7C) is on record as “up to 17%”. For the same compound, in test [3] (30 to 300 nM, 48 h incubation), the “Effect on accumulation of TDP-43 in the cytoplasm (extranuclear TDP-43)” value is given as “significantly reduce”. Also, in test [1] (3 nM to 100 nM), the “Protective effect on neuronal survival, dose relation” value is listed as “dose-dependent” and the “Protective effect on the distribution of TDP-43, dose relation” value is listed as “dose-dependent”. In addition, the “Neuroprotection (number of MNs, neurite network, TDP-43 distribution) after glutamate injury” value in test [1] (3 nM to 100 nM, FIG. 9) is given as “neuroprotective”. The “Protective effects in comparison to Riluzole and Edaravone” value in test [1] (100 nM) is “comparable to those of Riluzole or Edaravone”. For the same compound, the “Neuroprotective effects on neuromuscular junctions and neurite network” value in test [4] (300 nM) was “neuroprotective effects on a dose-dependent manner”. The “Number of NMJs” value in test [4] (300 nM, versus glutamate, FIG. 10A) is “increased”. Further, the “Total area of NMJs” value in test [4] (300 nM, versus glutamate, FIG. 10B) was “increased”. Also, in test [4] (300 nM, versus glutamate, FIG. 10C), the “Total MNs neurite network (NFH)” value is “increased”. For the same compound, the “Protective effects in comparison to Riluzole” value in test [4] is reported as “comparable to those of Riluzole”.

On to `Nc1nc2ccc(OC(F)(F)F)cc2s1` [Riluzole, reference compound], for which the “Protective effects of reference drugs after glutamate injury” value in test [1] (FIG. 9) is “protective effects”. For the same compound, in test [4] (concentration not given, FIG. 10), the “Protective effects of reference drug after glutamate injury” value was “protective effects”.

Source of the values: patent US20250041290A1, “USE OF N-(3-(4-(3-(DIISOBUTYLAMINO)PROPYL)PIPERAZIN-1-YL)PROPYL)-1H-BENZO[d]IMIDAZOL-2-AMINE SUCCINATE SALTS AND SOLVATES THEREOF FOR THE TREATMENT OF MOTOR NEURON DISEASES AND NEUROMUSCULAR JUNCTION DISORDERS” (ALZPROTECT, priority 2021, published 2025).
